# Measurements as given in PubChem BioAssay (NCI).
#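 96-well plates; 48 h exposure; 5 concentrations. Endpoints by linear interpolation between flanking doses. Not reached: highest tested concentration assigned. GI50 = concentration required for 50% inhibition of growth. Definition used: TGI = concentration required for complete inhibition of growth.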
# Experiments:
# Test in all cases: growth of human tumour cells (NCI), 48 h
# HCC-2998 colon = system: HCC-2998 colon
# OVCAR-4 ovarian = system: OVCAR-4 ovarian
# DU-145 prostate = system: DU-145 prostate
# MDA-MB-435 = system: MDA-MB-435
# SK-MEL-2 melanoma = system: SK-MEL-2 melanoma
# OVCAR-5 ovarian = system: OVCAR-5 ovarian
# IGROV1 ovarian = system: IGROV1 ovarian
# SF-539 CNS = system: SF-539 CNS
# A498 renal = system: A498 renal
# OVCAR-8 ovarian = system: OVCAR-8 ovarian
# NCI/ADR-RES ovarian = system: NCI/ADR-RES ovarian
# 786-0 renal = system: 786-0 renal
# HCT-116 colon = system: HCT-116 colon
# HCT-15 colon = system: HCT-15 colon
# COLO 205 colon = system: COLO 205 colon
# SF-268 CNS = system: SF-268 CNS
# HS 578T breast = system: HS 578T breast
# SW-620 colon = system: SW-620 colon
# SNB-75 CNS = system: SNB-75 CNS
# SK-MEL-5 melanoma = system: SK-MEL-5 melanoma
# UACC-257 melanoma = system: UACC-257 melanoma
# SK-OV-3 ovarian = system: SK-OV-3 ovarian
# SN12C renal = system: SN12C renal
# UO-31 renal = system: UO-31 renal
# HT29 colon = system: HT29 colon
# BT-549 breast = system: BT-549 breast
# NCI-H23 lung = system: NCI-H23 lung
# HOP-62 NSCLC = system: HOP-62 NSCLC
# TK-10 renal = system: TK-10 renal
# U251 CNS = system: U251 CNS
# NCI-H522 lung = system: NCI-H522 lung
# MDA-MB-231 breast = system: MDA-MB-231 breast
# CAKI-1 renal = system: CAKI-1 renal
# NCI-H460 lung = system: NCI-H460 lung
# CCRF-CEM leukemia = system: CCRF-CEM leukemia
# HL-60(TB) leukemia = system: HL-60(TB) leukemia
# MOLT-4 leukemia = system: MOLT-4 leukemia
# M14 melanoma = system: M14 melanoma
# NCI-H226 lung = system: NCI-H226 lung
# SK-MEL-28 melanoma = system: SK-MEL-28 melanoma
# PC-3 prostate = system: PC-3 prostate
# UACC-62 melanoma = system: UACC-62 melanoma
# EKVX NSCLC = system: EKVX NSCLC
# K-562 leukemia = system: K-562 leukemia
# KM12 colon = system: KM12 colon
# A549 NSCLC = system: A549 NSCLC
# SNB-19 CNS = system: SNB-19 CNS
# MALME-3M melanoma = system: MALME-3M melanoma
# HOP-92 NSCLC = system: HOP-92 NSCLC
# SR leukemia = system: SR leukemia
# MCF7 breast = system: MCF7 breast
# T-47D breast = system: T-47D breast
# RXF 393 renal = system: RXF 393 renal
smiles,measurement,setting,value
C#CCNC1CCC(c2csc(C#C)n2)=C1C (stereo unspecified),GI50,HCC-2998 colon,13.3 µM
same,TGI,HCC-2998 colon,28.6 µM
same,GI50,OVCAR-4 ovarian,23.5 µM
same,TGI,OVCAR-4 ovarian,> 100 µM
same,GI50,DU-145 prostate,5.97 µM
same,TGI,DU-145 prostate,> 100 µM
same,GI50,MDA-MB-435,16 µM
same,TGI,MDA-MB-435,67 µM
same,GI50,SK-MEL-2 melanoma,24.8 µM
same,TGI,SK-MEL-2 melanoma,> 100 µM
same,GI50,OVCAR-5 ovarian,4.77 µM
same,TGI,OVCAR-5 ovarian,> 100 µM
same,GI50,IGROV1 ovarian,183 nM
same,TGI,IGROV1 ovarian,391 nM
same,GI50,SF-539 CNS,1750 nM
same,TGI,SF-539 CNS,3.28 µM
same,GI50,A498 renal,3.9 µM
same,TGI,A498 renal,17.6 µM
same,GI50,OVCAR-8 ovarian,3.06 µM
same,TGI,OVCAR-8 ovarian,> 100 µM
same,GI50,NCI/ADR-RES ovarian,6.11 µM
same,TGI,NCI/ADR-RES ovarian,> 100 µM
same,GI50,786-0 renal,195 nM
same,TGI,786-0 renal,368 nM
same,GI50,HCT-116 colon,4.79 µM
same,TGI,HCT-116 colon,70.1 µM
same,GI50,HCT-15 colon,6.66 µM
same,TGI,HCT-15 colon,22.7 µM
same,GI50,COLO 205 colon,17.1 µM
same,TGI,COLO 205 colon,39.1 µM
same,GI50,SF-268 CNS,2590 nM
same,TGI,SF-268 CNS,8.27 µM
same,GI50,HS 578T breast,2990 nM
same,TGI,HS 578T breast,36.6 µM
same,GI50,SW-620 colon,8 µM
same,TGI,SW-620 colon,27.8 µM
same,GI50,SNB-75 CNS,1050 nM
same,TGI,SNB-75 CNS,2240 nM
same,GI50,SK-MEL-5 melanoma,7.98 µM
same,TGI,SK-MEL-5 melanoma,24.2 µM
same,GI50,UACC-257 melanoma,32.1 µM
same,TGI,UACC-257 melanoma,> 100 µM
same,GI50,SK-OV-3 ovarian,2570 nM
same,TGI,SK-OV-3 ovarian,7.41 µM
same,GI50,SN12C renal,3.94 µM
same,TGI,SN12C renal,> 100 µM
same,GI50,UO-31 renal,136 nM
same,TGI,UO-31 renal,306 nM
same,GI50,HT29 colon,2880 nM
same,TGI,HT29 colon,10.3 µM
same,GI50,BT-549 breast,1800 nM
same,TGI,BT-549 breast,3.58 µM
same,GI50,NCI-H23 lung,469 nM
same,TGI,NCI-H23 lung,1870 nM
same,GI50,HOP-62 NSCLC,1890 nM
same,TGI,HOP-62 NSCLC,4.98 µM
same,GI50,TK-10 renal,> 100 µM
same,TGI,TK-10 renal,> 100 µM
same,GI50,U251 CNS,2300 nM
same,TGI,U251 CNS,6 µM
same,GI50,NCI-H522 lung,1830 nM
same,TGI,NCI-H522 lung,3.85 µM
same,GI50,MDA-MB-231 breast,1560 nM
same,TGI,MDA-MB-231 breast,3.98 µM
same,GI50,CAKI-1 renal,2110 nM
same,TGI,CAKI-1 renal,11.5 µM
same,GI50,NCI-H460 lung,4.65 µM
same,TGI,NCI-H460 lung,> 100 µM
same,GI50,CCRF-CEM leukemia,922 nM
same,TGI,CCRF-CEM leukemia,4.94 µM
same,GI50,HL-60(TB) leukemia,2300 nM
same,TGI,HL-60(TB) leukemia,5.29 µM
same,GI50,MOLT-4 leukemia,5.32 µM
same,TGI,MOLT-4 leukemia,83.8 µM
same,GI50,M14 melanoma,4.22 µM
same,TGI,M14 melanoma,90.6 µM
same,GI50,NCI-H226 lung,11.4 µM
same,TGI,NCI-H226 lung,> 100 µM
same,GI50,SK-MEL-28 melanoma,25.1 µM
same,TGI,SK-MEL-28 melanoma,> 100 µM
same,GI50,PC-3 prostate,3.79 µM
same,TGI,PC-3 prostate,> 100 µM
same,GI50,UACC-62 melanoma,9.74 µM
same,TGI,UACC-62 melanoma,> 100 µM
same,GI50,EKVX NSCLC,2510 nM
same,TGI,EKVX NSCLC,46.9 µM
same,GI50,K-562 leukemia,3.95 µM
same,TGI,K-562 leukemia,> 100 µM
same,GI50,KM12 colon,9.09 µM
same,TGI,KM12 colon,> 100 µM
same,GI50,A549 NSCLC,10.3 µM
same,TGI,A549 NSCLC,> 100 µM
same,GI50,SNB-19 CNS,4.33 µM
same,TGI,SNB-19 CNS,> 100 µM
same,GI50,MALME-3M melanoma,1680 nM
same,TGI,MALME-3M melanoma,3.37 µM
same,GI50,HOP-92 NSCLC,1210 nM
same,TGI,HOP-92 NSCLC,2910 nM
same,GI50,SR leukemia,1300 nM
same,TGI,SR leukemia,8.24 µM
same,GI50,MCF7 breast,3.41 µM
same,TGI,MCF7 breast,18.3 µM
same,GI50,T-47D breast,3.88 µM
same,TGI,T-47D breast,> 100 µM
same,GI50,RXF 393 renal,2660 nM
same,TGI,RXF 393 renal,9.49 µM
